{"source": "paper PMC7873251", "about": "“CXCR7 ameliorates myocardial infarction as a β-arrestin-biased receptor” (Scientific Reports, 2021)", "key": {"human CXCR7": {"target": "T1, human CXCR7 (Homo sapiens, UniProt P25106)", "T1 construct": "expressed in transfected cells; host or cells: HEK293 cells (ATCC CRL-11268)", "T1 sequence (P25106 whole entry)": "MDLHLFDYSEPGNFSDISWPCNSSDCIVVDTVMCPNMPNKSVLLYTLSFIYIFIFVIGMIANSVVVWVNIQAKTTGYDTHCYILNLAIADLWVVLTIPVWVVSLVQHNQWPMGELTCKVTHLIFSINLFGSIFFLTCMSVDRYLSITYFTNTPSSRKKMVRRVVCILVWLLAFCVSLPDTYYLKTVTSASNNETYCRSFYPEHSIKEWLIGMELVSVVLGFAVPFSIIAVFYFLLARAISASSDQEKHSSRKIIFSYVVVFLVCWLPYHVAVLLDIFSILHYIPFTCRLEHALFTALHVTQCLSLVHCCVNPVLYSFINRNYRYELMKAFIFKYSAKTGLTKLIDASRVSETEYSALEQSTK", "T1 sequence (P32121 whole entry partner)": "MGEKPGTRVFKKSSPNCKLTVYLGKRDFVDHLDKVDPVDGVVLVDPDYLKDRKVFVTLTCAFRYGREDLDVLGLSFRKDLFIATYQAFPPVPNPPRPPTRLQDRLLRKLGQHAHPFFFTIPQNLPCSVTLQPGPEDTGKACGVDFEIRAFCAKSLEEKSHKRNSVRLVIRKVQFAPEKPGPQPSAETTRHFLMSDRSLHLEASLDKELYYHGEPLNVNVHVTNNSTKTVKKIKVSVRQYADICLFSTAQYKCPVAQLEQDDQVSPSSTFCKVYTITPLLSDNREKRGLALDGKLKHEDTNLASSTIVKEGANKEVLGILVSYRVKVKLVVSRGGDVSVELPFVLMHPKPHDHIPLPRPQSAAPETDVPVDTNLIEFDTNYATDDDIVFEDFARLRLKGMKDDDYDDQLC", "assay": "β-arrestin recruitment assay of CXCR7 (luminescence, HEK293)", "type": "cell-based", "settings": "HEK293 cells transfected with human β-arrestin-2-ω and human CXCR7-α, 37 °C for 90 min, then Gal-Screen 25 °C 90 min, n = 3 independent, read-out: EC50 for coupling of CXCR7 with β-arrestin (β-arrestin recruitment)", "experimental": "HEK293 cells (ATCC CRL-11268) were used for the β-arrestin recruitment assay, as previously described[52]. In brief, HEK293 cells were transfected with human β-arrestin-2-ω and human CXCR7-α. […] Luminescence was measured in an ARVO X3 plate reader (PerkinElmer, Waltham, MA, USA)."}, "ERK": {"tested_on": "ERK", "assay": "ERK phosphorylation (pERK/tERK immunoblot) in neonatal rat cardiomyocytes (NRCMs)", "type": "cell-based, rat (Wistar)", "settings": "30-min pretreatment with barbadin (50 M [sic]), then 10 min TC14012 (printed 3 M), n = 4", "procedure": "NRCMs and neonatal rat fibroblasts were prepared from 1-day-old Wistar rats (Takasugi Experimental Animal Supply Co., Saitama, Japan), as previously described. Briefly, cardiac cells were dispersed by digestion with collagenase type II (Worthington Biochemical, Lakewood, NJ, USA) and incubated at 37 °C for 80 min to divide the supernatant cells, which are rich in cardiomyocytes, and the attached cells, which are rich in cardiac fibroblasts. The supernatant NRCMs were cultured on gelatin-coated dishes at 37 °C in Dulbecco’s modified Eagle’s medium (DMEM; Nacalai Tesque, Kyoto, Japan) supplemented with 10% fetal calf serum for 36 h and confirmed on the basis of beating activity. After 12 h of starvation, the NRCMs were treated with TC14012 (Tocris Bioscience, Bristol, UK). Attached cells rich in cardiac fibroblasts were subcultured three times to increase their purity. We added vehicle (DMSO) or barbadin (MedChemExpress, New Jersey, USA) 30 min before stimulation.\nWestern blotting was performed as previously described. […] Signals were detected with the Pierce ECL Prime system (GE Healthcare) in a LAS4000 instrument (GE Healthcare). Band densities were analyzed using the ImageJ software (National Institutes of Health, Bethesda, MD, USA)."}, "adrenergic receptors": {"tested_on": "adrenergic receptors", "settings": "cited from earlier work", "excerpt": "(§1) There are many seven-transmembrane receptors (7TMRs), such as adrenergic receptors and angiotensin II receptors, in the heart, and they play various critical roles in cardiac function and morphology[1],[2]. […] The roles of ACKRs are largely unknown, and only ACKR3, also known as CXC chemokine receptor 7 (CXCR7), has be ..."}, "heart failure patients": {"tested_on": "heart failure patients", "settings": "cited from earlier work", "excerpt": "as §1"}, "[1]": {"tested_on": "CC chemokine receptor 2-positive macrophages", "settings": "pressure-overload heart failure model; cited from earlier work", "excerpt": "(§2) Recently, the importance of chemokines and their receptors in cardiovascular diseases has been pointed out."}, "[2]": {"tested_on": "ERK (via rat CXCR7 expression plasmid)", "assay": "ERK phosphorylation (pERK/tERK immunoblot) in CXCR7-transfected HEK293 cells", "type": "cell-based, HEK293 cells (human embryonic kidney)", "settings": "CXCL12 100 nM", "procedure": "HEK293 cells (ATCC CRL-11268) were used for the β-arrestin recruitment assay, as previously described. In brief, HEK293 cells were transfected with human β-arrestin-2-ω and human CXCR7-α. […] Luminescence was measured in an ARVO X3 plate reader (PerkinElmer, Waltham, MA, USA). In addition, HEK293 cells were transfected with a rat CXCR7 expression plasmid using Lipofectamine 3000 (Thermo Fisher Scientific). The CXCR7 expression plasmid was synthesized by amplifying a rat Cxcr7 mRNA sequence (RefSeq: NM_053352.1) with a FLAG tag (forward primer: 5′-[…]-3′, reverse primer: 5′-[…]-3′) from cDNA prepared from total RNA isolated from neonatal rat heart and inserting it in pShuttle-CMV (#16403, Addgene, Watertown, MA, USA). The cells were cultured for 36 h.\nWestern blotting was performed as previously described. Tissues and cells were homogenized in ice-cold RIPA buffer containing protease inhibitor (cOmplete Protease Inhibitor Cocktail, Merck) and phosphatase inhibitor (PhosSTOP, Sigma). Supernatants were collected after centrifugation and mixed with an equal amount of loading buffer (125 mM Tris–HCl pH 6.8, 30% glycerol, 10% SDS, and 0.6 M DTT). […] Signals were detected with the Pierce ECL Prime system (GE Healthcare) in a LAS4000 instrument (GE Healthcare). Band densities were analyzed using the ImageJ software (National Institutes of Health, Bethesda, MD, USA)."}, "CXCR4": {"tested_on": "CXCR4", "settings": "via CXCR4; cited from earlier work", "excerpt": "as §2"}, "[3]": {"tested_on": "type 1 angiotensin II receptor", "settings": "cited from earlier work", "excerpt": "There are many seven-transmembrane receptors (7TMRs), such as adrenergic receptors and angiotensin II receptors, in the heart, and they play various critical roles in cardiac function and morphology[1],[2]. […] The roles of ACKRs are largely unknown, and only ACKR3, also known as CXC chemokine receptor 7 (CXCR7), has be ... || There are numerous reports on biased agonists. Biased agonism occurs when two ligands share one receptor, but transmit different signals. […] However, there are a few natural β-arrestin-biased agonists and very few 7TMRs that activate intracellular signaling only through β-arr ..."}, "cardiac hypertrophy": {"tested_on": "cardiac hypertrophy", "settings": "cited from earlier work", "excerpt": "There are numerous reports on biased agonists. Biased agonism occurs when two ligands share one receptor, but transmit different signals. […] However, there are a few natural β-arrestin-biased agonists and very few 7TMRs that activate intracellular signaling only through β-arr ..."}, "[4]": {"tested_on": "CC chemokine receptor-like 2 (CCRL2)", "settings": "cited from earlier work", "excerpt": "In this study, we focused on CXCR7 because of its abundant expression in the heart and its unique character as a 7TMR. […] As a 7TMR, the β1-adrenergic receptor plays critical roles in the heart[21],[22]; however, its expression level was tenfold lower than that of Cxcr7."}}, "note": "“Also recorded” adds a separate entry of the source."}
{"compound": "N=C(N)NCCC[C@H](NC(=O)[C@@H]1CSSC[C@H](NC(=O)[C@H](Cc2ccc3ccccc3c2)NC(=O)[C@H](CCCNC(=N)N)NC(=O)[C@@H](N)CCCNC(=N)N)C(=O)N[C@@H](Cc2ccc(O)cc2)C(=O)N[C@@H](CCCNC(N)=O)C(=O)N[C@@H](CCCCN)C(=O)N[C@H](CCCNC(N)=O)C(=O)N2CCC[C@H]2C(=O)N[C@@H](Cc2ccc(O)cc2)C(=O)N[C@@H](CCCNC(=N)N)C(=O)N[C@@H](CCCNC(N)=O)C(=O)N1)C(N)=O", "note": "[TC14012]", "values": [{"measurement": "EC50", "setting": "human CXCR7", "result": 47.4, "unit": "nM"}]}
{"compound": "Nn1cnc2scc(-c3ccc(Cc4ccccc4)cc3)c2c1=O", "note": "[barbadin]", "values": [{"measurement": "inhibition of TC14012-induced ERK activation", "setting": "ERK", "result": "abolished TC14012-induced ERK activation; also recorded: completely suppressed"}]}
{"compound": "COc1ccccc1OCCNCC(O)COc1cccc2[nH]c3ccccc3c12", "note": "(centres unmarked) [carvedilol]", "values": [{"measurement": "adrenergic receptor blockade and β-arrestin signaling", "setting": "adrenergic receptors", "result": "not only blocks adrenergic receptors, but also activates cardioprotective signals, including ERK, through β-arrestin"}, {"measurement": "effectiveness in heart failure patients", "setting": "heart failure patients", "result": "very effective for the treatment of heart failure patients"}]}
{"compound": "CC chemokine ligand 2: chemokine that induced accumulation of CC chemokine receptor 2-positive macrophages", "values": [{"measurement": "accumulation of CCR2-positive macrophages", "setting": "[1]", "result": "induced the accumulation of CC chemokine receptor 2-positive macrophages"}]}
{"compound": "CXCL12: a natural ligand of CXCR4 and CXCR7", "values": [{"measurement": "time of peak ERK activity after stimulation", "setting": "[2]; HEK293 cells with CXCR7 expression plasmid, n = 4", "result": 5, "unit": "min"}, {"measurement": "ERK activation (pERK/tERK)", "setting": "[2]; HEK293 cells, rat CXCR7 expression plasmid (various amounts), n = 3", "result": "activated ERK in a CXCR7 expression plasmid-dose-dependent manner"}, {"measurement": "protection of the heart from hypoxia", "setting": "CXCR4", "result": "protects the heart from hypoxia"}]}
{"compound": "angiotensin-(1-7): a metabolite of angiotensin II", "values": [{"measurement": "G protein versus β-arrestin activation compared with angiotensin II", "setting": "[3]", "result": "binds to type 1 angiotensin II receptor, but fails to activate G proteins, and selectively promotes β-arrestin activation compared with angiotensin II"}, {"measurement": "cardiac hypertrophy", "setting": "cardiac hypertrophy", "result": "attenuates cardiac hypertrophy"}]}
{"compound": "chemerin: ligand of CCRL2", "values": [{"measurement": "binding to CCRL2", "setting": "[4]", "result": "it does not bind to chemokines, but to chemerin"}]}
